Values of other authors as cited in US20110033536A1, “24-HOUR SUSTAINED-RELEASE METOCLOPRAMIDE” (POSIVISIONARY SOLUTIONS LLP, priority 2008, published 2011).

Plasma concentrations related to extrapyramidal effects (akathisia) (relationship stated as determined, no own test): above 120 ng/ml
Compound: CCN(CC)CCNC(=O)c1cc(Cl)c(N)cc1OC [metoclopramide]
Plasma concentrations at which undesirable side effects (akathisia) are present (literature (Bateman 1979; Parlak 2005)): above 100 nanograms per milliliter
